Experimental data published in patent publication US11254686B1 (Corvus Pharmaceuticals, Inc., priority 2017, dated 2022).

What was measured:
[1] = Hepatocyte (Hep) intrinsic clearance, rat; assay type: in vitro ADME; details: hepatocytes
adenosine A3 receptor = adenosine A3 receptor (Homo sapiens (Human), UniProt P0DMS8); assay: A3 cAMP IC50 assay (Table 1); assay type: biochemical
CYP3A4 = CYP3A4 (Homo sapiens (Human), UniProt P08684); assay: CYP450 inhibition at 10 μM, CYP3A4; assay type: in vitro ADME; details: for inhibition at 10 µM: human, read-out: CYP 450 % INH @ 10 μM
[2] = Hepatocyte (Hep) intrinsic clearance, human; assay type: in vitro ADME; details: hepatocytes
adenosine A1 receptor = adenosine A1 receptor (Homo sapiens (Human), UniProt P30542); assay: A1 cAMP IC50 assay (Table 1); assay type: biochemical
adenosine A2B receptor = adenosine A2B receptor (Homo sapiens (Human), UniProt P29275); assay: Adenosine receptor activity assay (Table 1), A2B activity; assay type: biochemical; details: for Ratio: A2A activity to A2B activity (A2A/A2B); for IC50: read-out: Ave A2B cAMP IC50
[3] = Liver microsome (LM) intrinsic clearance, human; assay type: in vitro ADME
adenosine A2A receptor = adenosine A2A receptor (Homo sapiens (Human), UniProt P29274); assay: Adenosine receptor activity assay (Table 1), A2A activity; assay type: biochemical; details: read-out: Ave A2A cAMP IC50
[4] = Liver microsome (LM) intrinsic clearance, rat; assay type: in vitro ADME
CYP2D6 = CYP2D6 (Homo sapiens (Human), UniProt P10635); assay: CYP450 inhibition at 10 μM, CYP2D6; assay type: in vitro ADME; details: read-out: CYP 450 % INH @ 10 μM
Chain of CYP2D6 (P10635 whole entry): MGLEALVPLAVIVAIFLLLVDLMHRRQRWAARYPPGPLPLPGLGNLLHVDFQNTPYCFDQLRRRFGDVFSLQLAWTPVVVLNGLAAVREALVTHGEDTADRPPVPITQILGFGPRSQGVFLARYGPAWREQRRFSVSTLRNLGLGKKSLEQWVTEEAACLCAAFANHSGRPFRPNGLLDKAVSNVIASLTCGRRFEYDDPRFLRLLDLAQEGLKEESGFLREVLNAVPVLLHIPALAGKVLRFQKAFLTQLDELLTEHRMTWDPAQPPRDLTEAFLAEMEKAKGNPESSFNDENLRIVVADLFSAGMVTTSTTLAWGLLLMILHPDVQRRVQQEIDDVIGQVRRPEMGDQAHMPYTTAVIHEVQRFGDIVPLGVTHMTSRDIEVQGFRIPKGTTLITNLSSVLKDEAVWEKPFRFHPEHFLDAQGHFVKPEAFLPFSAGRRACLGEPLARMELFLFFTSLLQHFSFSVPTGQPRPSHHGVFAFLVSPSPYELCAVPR

Chain of adenosine A2B receptor (P29275 whole entry): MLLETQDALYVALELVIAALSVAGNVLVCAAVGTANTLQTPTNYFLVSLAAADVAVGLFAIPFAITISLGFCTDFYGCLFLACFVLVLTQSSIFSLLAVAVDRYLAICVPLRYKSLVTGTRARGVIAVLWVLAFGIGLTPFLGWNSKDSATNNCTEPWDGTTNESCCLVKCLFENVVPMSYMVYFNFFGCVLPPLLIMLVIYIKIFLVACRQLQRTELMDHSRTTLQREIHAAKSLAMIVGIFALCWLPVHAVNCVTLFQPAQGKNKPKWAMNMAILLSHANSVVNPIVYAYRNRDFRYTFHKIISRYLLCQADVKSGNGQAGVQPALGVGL
Chain of adenosine A3 receptor (P0DMS8 whole entry): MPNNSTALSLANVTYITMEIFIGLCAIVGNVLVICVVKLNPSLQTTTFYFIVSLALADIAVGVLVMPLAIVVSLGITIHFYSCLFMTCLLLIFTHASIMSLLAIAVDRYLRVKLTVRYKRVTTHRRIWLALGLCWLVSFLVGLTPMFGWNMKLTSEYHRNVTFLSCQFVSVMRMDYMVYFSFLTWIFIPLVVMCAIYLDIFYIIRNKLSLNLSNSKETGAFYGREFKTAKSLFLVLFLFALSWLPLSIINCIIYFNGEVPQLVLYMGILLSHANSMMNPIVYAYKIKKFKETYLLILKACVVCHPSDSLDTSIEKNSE
Chain of adenosine A1 receptor (P30542 whole entry): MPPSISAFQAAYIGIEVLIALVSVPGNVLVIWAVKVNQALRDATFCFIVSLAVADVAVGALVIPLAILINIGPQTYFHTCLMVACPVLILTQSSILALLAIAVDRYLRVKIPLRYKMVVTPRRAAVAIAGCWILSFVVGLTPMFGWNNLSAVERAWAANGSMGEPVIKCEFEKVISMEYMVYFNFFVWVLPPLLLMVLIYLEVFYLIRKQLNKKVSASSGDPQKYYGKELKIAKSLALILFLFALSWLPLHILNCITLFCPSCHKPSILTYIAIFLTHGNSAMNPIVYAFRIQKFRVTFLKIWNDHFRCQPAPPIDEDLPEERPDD
Chain of adenosine A2A receptor (P29274 whole entry): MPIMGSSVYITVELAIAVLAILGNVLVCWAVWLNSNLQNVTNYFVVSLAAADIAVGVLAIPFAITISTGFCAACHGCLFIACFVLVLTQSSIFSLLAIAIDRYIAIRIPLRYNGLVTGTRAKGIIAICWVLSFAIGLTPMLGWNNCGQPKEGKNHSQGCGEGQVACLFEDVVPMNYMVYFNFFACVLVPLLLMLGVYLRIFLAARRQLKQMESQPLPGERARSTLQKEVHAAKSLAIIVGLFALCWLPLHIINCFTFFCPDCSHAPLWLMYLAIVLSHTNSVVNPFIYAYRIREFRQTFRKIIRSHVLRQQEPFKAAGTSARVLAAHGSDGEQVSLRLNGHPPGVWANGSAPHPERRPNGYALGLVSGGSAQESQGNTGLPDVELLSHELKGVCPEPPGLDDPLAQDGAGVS
Chain of CYP3A4 (P08684 whole entry): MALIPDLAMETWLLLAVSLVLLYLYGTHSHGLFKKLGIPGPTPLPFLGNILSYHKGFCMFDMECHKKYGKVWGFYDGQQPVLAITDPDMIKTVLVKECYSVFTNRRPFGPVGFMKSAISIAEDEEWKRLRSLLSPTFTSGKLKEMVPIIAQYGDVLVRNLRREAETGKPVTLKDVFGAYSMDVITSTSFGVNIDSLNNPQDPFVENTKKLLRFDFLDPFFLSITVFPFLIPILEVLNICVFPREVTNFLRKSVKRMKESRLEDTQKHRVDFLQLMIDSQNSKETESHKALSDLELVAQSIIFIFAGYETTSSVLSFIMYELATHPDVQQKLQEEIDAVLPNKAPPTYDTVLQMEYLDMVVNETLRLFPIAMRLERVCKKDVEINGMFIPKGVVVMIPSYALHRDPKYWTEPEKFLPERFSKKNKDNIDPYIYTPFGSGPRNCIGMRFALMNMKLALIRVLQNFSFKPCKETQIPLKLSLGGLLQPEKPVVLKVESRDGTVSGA

Compound | hepatocyte CLint [1] [µL/min/1e6 cells] | IC50 (adenosine A3 receptor) [nM] | inhibition at 10 µM (CYP3A4) [%] | hepatocyte CLint [2] [µL/min/1e6 cells] | IC50 (adenosine A1 receptor) [nM] | Ratio (adenosine A2B receptor) | IC50 (adenosine A2B receptor) [nM] | LM CLint [3] [μL/min/mg/protein] | IC50 (adenosine A2A receptor) [nM] | LM CLint [4] [μL/min/mg/protein] | inhibition at 10 µM (CYP2D6) [%] | CYP3A4 IC50 (CYP3A4) [nM]
C[C@H](Nc1nc(C(=O)N2CCC2)c2sccc2n1)c1cccnc1 [Example Z2, (S)-Azetidin-1-yl(2-((1-(pyridin-3-yl)ethyl)amino)thieno[3,2-d]pyrimidin-4-yl)methanone] | 37.7 | > 500 | 66 | 9.27 | > 500 | 31.36 | < 10 | 23.61 | 100 to 500 | 27.86 | 38 | 
C[C@H](Nc1nc(C(=O)N2CC[C@@H](F)C2)c2sccc2n1)c1cccnc1 [Example Z8, ((R)-3-Fluoropyrrolidin-1-yl)(2-(((S)-1-(pyridin-3-yl)ethyl)amino)thieno[3,2-d]pyrimidin-4-yl)methanone] | 47.6 | > 500 | 74 | 7.75 | > 500 | 7.83 | 10 to 50 | 17.06 | 100 to 500 | 20.43 | 41 | 
C[C@H](Nc1nc(C(=O)N2CC[C@H](F)C2)c2sccc2n1)c1cccnc1 [Example Z9, ((S)-3-Fluoropyrrolidin-1-yl)(2-(((S)-1-(pyridin-3-yl)ethyl)amino)thieno[3,2-d]pyrimidin-4-yl)methanone] | 70.1 |  | 71 | 11.4 |  | 2.55 | 10 to 50 | 15.83 | 50 to 100 | 28.41 | 20 | 
O=C(c1nc(NCc2cncc(F)c2)nc2ccsc12)N1CCCC1 [Example Z21, (2-(((5-Fluoropyridin-3-yl)methyl)amino)thieno[3,2-d]pyrimidin-4-yl)(pyrrolidin-1-yl)methanone] | 71.2 |  | 45 | 23.1 |  |  |  | 43.24 | 100 to 500 | 89.01 | 4 | 12400
Cc1cncc(CNc2nc(C(=O)N3CCCC3)c3sccc3n2)c1 [Example Z50, (2-(((5-Methylpyridin-3-yl)methyl)amino)thieno[3,2-d]pyrimidin-4-yl)(pyrrolidin-1-yl)methanone] | 149 |  | 79 | 49 |  | 5.23 | 10 to 50 | 126.01 | > 500 | 129.90 | 32 | 
C[C@H](Nc1nc(C(=O)N2CC[C@H](F)C2)c2sccc2n1)c1ccccn1 [Example Z53, ((S)-3-Fluoropyrrolidin-1-yl)(2-(((S)-1-(pyridin-2-yl)ethyl)amino)thieno[3,2-d]pyrimidin-4-yl)methanone] | 42.7 |  | 10 | 10.9 |  | 7.15 | < 10 | 13.51 | 50 to 100 | 14.92 | 0 | 
O=C(c1nc(NCc2cncc(F)c2)nc2ccsc12)N1CC[C@@H](O)C1 [Example Z66, (R)-(2-(((5-Fluoropyridin-3-yl)methyl)amino)thieno[3,2-d]pyrimidin-4-yl)(3-hydroxypyrrolidin-1-yl)methanone] | 21.2 |  | 24 | 7.1 |  | 15.71 | 10 to 50 | 16.45 | 100 to 500 | 14.07 | 4 | 
C[C@H](Nc1nc(C(=O)N2CC(F)(F)C2)c2sccc2n1)c1ccccn1 [Example Z92, (S)-(3,3-Difluoroazetidin-1-yl)(2-((1-(pyridin-2-yl)ethyl)amino)thieno[3,2-d]pyrimidin-4-yl)methanone] | 46.5 | > 500 | 0 | 45.2 | > 500 | 10.92 | 10 to 50 |  | 100 to 500 |  |  | 

Further lines, results first:

hepatocyte CLint [1] [µL/min/1e6 cells] | IC50 (adenosine A3 receptor) [nM] | inhibition at 10 µM (CYP3A4) [%] | hepatocyte CLint [2] [µL/min/1e6 cells] | IC50 (adenosine A1 receptor) [nM] | Ratio (adenosine A2B receptor) | IC50 (adenosine A2B receptor) [nM] | LM CLint [3] [μL/min/mg/protein] | IC50 (adenosine A2A receptor) [nM] | LM CLint [4] [μL/min/mg/protein] | inhibition at 10 µM (CYP2D6) [%] | CYP3A4 IC50 (CYP3A4) [nM] | Compound
40.7 | > 500 | 0 | 16.8 | > 500 | 5.59 | 10 to 50 |  | 100 to 500 |  |  |  | C[C@H](Nc1nc(C(=O)N2CCC(F)(F)C2)c2sccc2n1)c1ccccn1 [Example Z96, (S)-(3,3-Difluoropyrrolidin-1-yl)(2-((1-(pyridin-2-yl)ethyl)amino)thieno[3,2-d]pyrimidin-4-yl)methanone]
61.4 | > 500 | 53.8 | 41.3 | > 500 | 30.97 | 10 to 50 |  | > 500 |  |  |  | O=C(c1nc(NCc2cncc(F)c2)nc2ccsc12)N1CC(F)(F)C1 [Example Z97, (3,3-Difluoroazetidin-1-yl)(2-(((5-fluoropyridin-3-yl)methyl)amino)thieno[3,2-d]pyrimidin-4-yl)methanone]
65.3 | > 500 | 48.9 | 21.1 | > 500 | 37.02 | 10 to 50 |  | > 500 |  |  |  | O=C(c1nc(NCc2cncc(F)c2)nc2ccsc12)N1CC[C@H](F)C1 [Example Z99, (S)-(2-(((5-Fluoropyridin-3-yl)methyl)amino)thieno[3,2-d]pyrimidin-4-yl)(3-fluoropyrrolidin-1-yl)methanone]
22.2 | > 500 | 7.65 | 1.89 | > 500 | 11.09 | 10 to 50 |  | 100 to 500 |  |  |  | C[C@H](Nc1nc(C(=O)N2CC(O)C2)c2sccc2n1)c1ccccn1 [Example Z100, (S)-(3-Hydroxyazetidin-1-yl)(2-((1-(pyridin-2-yl)ethyl)amino)thieno[3,2-d]pyrimidin-4-yl)methanone]
27.7 | > 500 | 1.91 | 58.9 | > 500 | 19.04 | < 10 |  | 100 to 500 |  |  |  | C[C@H](Nc1nc(C(=O)N2CCOC2)c2sccc2n1)c1ccccn1 [Example Z105, (S)-Oxazolidin-3-yl(2-((1-(pyridin-2-yl)ethyl)amino)thieno[3,2-d]pyrimidin-4-yl)methanone]
19.9 | > 500 | 28.4 | 4.11 | > 500 | 68.08 | < 10 |  | > 500 |  |  |  | O=C(c1nc(NCc2cncc(F)c2)nc2ccsc12)N1CC(O)C1 [Example Z109, (2-(((5-Fluoropyridin-3-yl)methyl)amino)thieno[3,2-d]pyrimidin-4-yl)(3-hydroxyazetidin-1-yl)methanone]
45.4 | > 500 | 19.9 | 8.64 | > 500 | 15.70 | < 10 |  | 50 to 100 |  |  |  | CCNC(=O)c1nc(N[C@@H](C)c2ccccn2)nc2ccsc12 [Example Z111, (S)—N-Ethyl-2-((1-(pyridin-2-yl)ethyl)amino)thieno[3,2-d]pyrimidine-4-carboxamide]
51.7 | > 500 | 75 | 13.9 | > 500 | 71.92 | < 10 |  | 100 to 500 |  |  |  | COC1CN(C(=O)c2nc(NCc3cncc(F)c3)nc3ccsc23)C1 [Example Z115, (2-(((5-Fluoropyridin-3-yl)methyl)amino)thieno[3,2-d]pyrimidin-4-yl)(3-methoxyazetidin-1-yl)methanone]
22 | > 500 | 76.5 | 5.54 | > 500 | 42.97 | 10 to 50 |  | > 500 |  |  |  | O=C(NCCO)c1nc(NCc2cncc(F)c2)nc2ccsc12 [Example Z123, 2-(((5-Fluoropyridin-3-yl)methyl)amino)-N-(2-hydroxyethyl)thieno[3,2-d]pyrimidine-4-carboxamide]
144 | > 500 | -50.9 | 42.8 | > 500 | 15.42 | < 10 |  | 100 to 500 |  |  |  | C[C@H](Nc1nc(C(=O)N2CCCC2)c2sccc2n1)c1cccc(F)c1 [Example Z125, (S)-(2-((1-(3-Fluorophenyl)ethyl)amino)thieno[3,2-d]pyrimidin-4-yl)(pyrrolidin-1-yl)methanone]
72.9 | > 500 | 62.7 | 17.9 | > 500 | 72.09 | < 10 |  | 100 to 500 |  |  |  | C[C@H](Nc1nc(C(=O)N2CCCC2)c2sccc2n1)c1cncc(F)c1 [Example Z134, (S)-(2-((1-(5-Fluoropyridin-3-yl)ethyl)amino)thieno[3,2-d]pyrimidin-4-yl)(pyrrolidin-1-yl)methanone]
